Where “and” joins values, the source holds several entries; their conditions need not be identical. Identical values can stand only once.
Test system: 653999-131-R-J2-PDC complex spheroids, growth inhibition
Assay: Anticancer human tumor 653999-131-R-J2-PDC patient-derived lung adenocarcinoma cell line growth inhibition [RAS]
Settings: for viability, T/C: stronger effect = lower value; active = viability on the fitted dose curve at most 10% of control; inactive = the rest
Description: RAS pathway inhibitors in Combinations in Complex Spheroids
A high-throughput screen of multi-cell type tumor spheroids was designed to identify active combinations of RAS pathway inhibitors and targeted small molecules. Complex spheroids include a stromal component modeled by human endothelial cells (HUVEC) and fibroblasts modeled by human mesenchymal stem cells (MSCs). The concentration ranges selected for each drug and investigational agent were based upon clinically achievable concentrations if the clinical Cmax of the agent was known.
Compounds. The drugs and investigational agents: abemaciclib (NSC768073), cobimetinib (NSC768068), divarasib (GDC6063, NSC841802), docetaxel (NSC628503), GDC-1971 (RLY-1971, NSC841576), gemcitabine (NSC613327), inavolisib (NSC800729), ipatasertib (NSC767898), KB-0742 (NSC834161), MRTX-1133 (NSC836407), osimertinib (NSC779217), RMC-4630 (NSC839698), RMC-6236 (NSC851965), RMC-6291 (NSC852671), Ro-3306 (NSC812927), sapanisertib (NSC764658), SN-38 (NSC673596), staurosporine (NSC755774), SY5609 (NSC837396), and tovorafenib (DAY101, NSC766906), were obtained from the National Cancer Institute (NCI) Developmental Therapeutics Program Chemical Repository. The FDA-approved anticancer drug set is available from the NCI Developmental Therapeutics Program. […] The stock solutions were prepared in dimethyl sulfoxide (DMSO, Sigma-Aldrich, St. Louis, MO, cat. D2650) at 800-fold the tested concentration and stored at -70 degrees C prior to their use. All drugs and investigational agents were tested over a range starting from a high concentration at or near the clinical Cmax and decreasing in half-log increments. If the clinical Cmax for an agent had not been determined, the highest concentration tested was 10 microM.
Cell Culture. All cells were maintained in an incubator at 37 degrees C and 5% CO2 with 95% humidity. The PDC lines were cultured according to standard operating procedures established by the NCI PDMR. All PDCs were thawed and cultured in Matrigel-coated flasks prepared with a working solution of 1X Ham's F-12 nutrient mix, without supplementation (Invitrogen, Waltham, MA, cat. 11765054), 100 U/mL penicillin-streptomycin (Invitrogen, cat. 15140122), and 2.5% Matrigel (Corning Inc., Corning, NY, cat. 354248) for the first three passages. The 362531-283-R-J2-PDC and 782815-120-R-J1-PDC lines were cultured in 6C/Colon 1B media, which includes advanced DMEM/F-12 (Thermo Fisher Scientific, cat. 12634028), 10 mM HEPES (Thermo Fisher Scientific, cat. 15630080), 1X GlutaMAX supplement (Thermo Fisher Scientific, cat. 35050061), 0.1 mg/mL primocin (InvivoGen, San Diego, CA, cat. ant-pm-2), 10% defined fetal bovine serum, heat inactivated (HyClone Laboratories Inc., Logan, UT, cat. SH30070.03HI), 50% L-WRN conditioned media (ATCC, cat. CRL-3276), 1.25 mM N-Acetyl-L-cysteine (Sigma-Aldrich, cat. A9165), 10 mM nicotinamide (Sigma-Aldrich, cat. N0636), 1X B-27 supplement (Thermo Fisher Scientific, cat. 17504044), 1X N-2 supplement (Thermo Fisher Scientific, cat. 17502048), 50 ng/mL human EGF (Thermo Fisher Scientific, cat. PHG0311), and 10 microM Y-27632 dihydrochloride (Tocris Bioscience, cat. 1254). The K12877-001-R-J1-PDC line was cultured in 6I media, which includes all 6C/Colon 1B media plus 10 ng/mL human FGF-10 (PeproTech, cat. 100-26), 1 ng/mL human FGF-2 (PeproTech, cat. 100-18B), 1 µM prostaglandin E2 (Tocris Bioscience, cat. 2296), […] hydrocortisone (Sigma-Aldrich, cat. H4001), and […] bovine insulin (Sigma-Aldrich, cat. I6634). The K86415-001-R-J1-PDC line was cultured in 6D media, which includes all 6C/Colon 1B media components minus the L-WRN conditioned media. The 485176-168-R4-J1-PDC was cultured in PANC media, which includes all 6C/Colon 1B media plus 100 ng/mL human FGF-10 (PeproTech, cat. 100-26), 500 nM SB-431542 (Selleckchem, cat. S1067), and 10 nM gastrin (Tocris Bioscience, cat. 3006). […]
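Note: spheroids exposed to the agents for seven days before the readout.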

C[C@@H](NC(=O)c1ncnc(N)c1Cl)c1ncc(C(=O)Nc2cc(C(F)(F)F)c(Cl)cn2)s1 + CCn1c(-c2cccnc2C(C)OC)c2c3cc(ccc31)N1CCOC(CC(NC(=O)C(C(C)C)N(C)C(=O)C3(F)CCN(C(=O)C#CC(C)(C)N(C)C)CC3)C(=O)N3CCCC(N3)C(=O)OCC(C)(C)C2)C1
> 10 µM: IC50 (curve of first compound, second compound 0.000949 µM) | IC50 (curve of first compound, second compound 0.003 µM) | IC50 (curve of first compound, second compound 0.00949 µM) | IC50 (curve of first compound, second compound 0.03 µM) | IC50 (curve of first compound, second compound 0.0949 µM) | IC50 (curve of first compound, second compound 0.3 µM)
inactive: viability, T/C (second compound 0.000949 µM, first compound 0.0316 µM) 95.5% | viability, T/C (second compound 0.000949 µM, first compound 0.1 µM) 123% | viability, T/C (second compound 0.000949 µM, first compound 0.316 µM) 95.5% | viability, T/C (second compound 0.000949 µM, first compound 1 µM) 101% | viability, T/C (second compound 0.000949 µM, first compound 3.16 µM) 106% | viability, T/C (second compound 0.000949 µM, first compound 10 µM) 83.6% | viability, T/C (second compound 0.003 µM, first compound 0.0316 µM) 105% | viability, T/C (second compound 0.003 µM, first compound 0.1 µM) 104% | viability, T/C (second compound 0.003 µM, first compound 0.316 µM) 126% | viability, T/C (second compound 0.003 µM, first compound 1 µM) 104% | viability, T/C (second compound 0.003 µM, first compound 3.16 µM) 100% | viability, T/C (second compound 0.003 µM, first compound 10 µM) 73.7% | viability, T/C (second compound 0.00949 µM, first compound 0.0316 µM) 113% | viability, T/C (second compound 0.00949 µM, first compound 0.1 µM) 115% | viability, T/C (second compound 0.00949 µM, first compound 0.316 µM) 119% | viability, T/C (second compound 0.00949 µM, first compound 1 µM) 112% | viability, T/C (second compound 0.00949 µM, first compound 3.16 µM) 108% | viability, T/C (second compound 0.00949 µM, first compound 10 µM) 94.8% | viability, T/C (second compound 0.03 µM, first compound 0.0316 µM) 111% | viability, T/C (second compound 0.03 µM, first compound 0.1 µM) 109% | viability, T/C (second compound 0.03 µM, first compound 0.316 µM) 107% | viability, T/C (second compound 0.03 µM, first compound 1 µM) 107% | viability, T/C (second compound 0.03 µM, first compound 3.16 µM) 100% | viability, T/C (second compound 0.03 µM, first compound 10 µM) 95.3% | viability, T/C (second compound 0.0949 µM, first compound 0.0316 µM) 113% | viability, T/C (second compound 0.0949 µM, first compound 0.1 µM) 97.3% | viability, T/C (second compound 0.0949 µM, first compound 0.316 µM) 121% | viability, T/C (second compound 0.0949 µM, first compound 1 µM) 107% | viability, T/C (second compound 0.0949 µM, first compound 3.16 µM) 121% | viability, T/C (second compound 0.0949 µM, first compound 10 µM) 91.5% | viability, T/C (second compound 0.3 µM, first compound 0.0316 µM) 104% | viability, T/C (second compound 0.3 µM, first compound 0.1 µM) 98.9% | viability, T/C (second compound 0.3 µM, first compound 0.316 µM) 93.4% | viability, T/C (second compound 0.3 µM, first compound 1 µM) 121% | viability, T/C (second compound 0.3 µM, first compound 3.16 µM) 101% | viability, T/C (second compound 0.3 µM, first compound 10 µM) 85.9%

CC1(C)CCC(Nc2ncc(C(F)(F)F)c(-c3c[nH]c4c(P(C)(C)=O)c(C#N)ccc34)n2)CN1 (stereo unspecified)
> 0.3 µM: IC50 (curve of compound)
inactive: viability, T/C (compound 0.000949 µM) 87.8% [middle of 4 runs] | viability, T/C (compound 0.003 µM) 75.3% [middle of 4 runs] | viability, T/C (compound 0.00949 µM) 72% [middle of 4 runs] | viability, T/C (compound 0.03 µM) 71.6% [middle of 4 runs] | viability, T/C (compound 0.0949 µM) 71.7% [middle of 4 runs] | viability, T/C (compound 0.3 µM) 61.9% [middle of 4 runs]

C[C@@H](NC(=O)c1ncnc(N)c1Cl)c1ncc(C(=O)Nc2cc(C(F)(F)F)c(Cl)cn2)s1
> 10 µM: IC50 (curve of compound)
inactive: viability, T/C (compound 0.0316 µM) 110% and 94.1% and 103% | viability, T/C (compound 0.1 µM) 99.2% and 120% and 108% | viability, T/C (compound 0.316 µM) 93.9% and 101% and 114% | viability, T/C (compound 1 µM) 91.1% and 102% and 105% | viability, T/C (compound 3.16 µM) 98.3% and 99.8% and 102% | viability, T/C (compound 10 µM) 68.6% and 79% and 75.5%

— PubChem BioAssay AID2060886 (Molecular Pharmacology Branch, DTP, NCI, 2025)
